pKi: −log10 of the molar value.
Assays:
PBR = PBR (Homo sapiens, UniProt P30536); assay: Affinity to brain targets (panel); type: binding
Ca++ channel = assay: Affinity to brain targets (panel); type: binding
Sigma2 = Sigma2 (Homo sapiens, UniProt Q5BJF2); assay: Affinity to brain targets (panel); type: binding; settings: Sigma2 (Sigma 2)
Adenosine = assay: Affinity to brain targets (panel); type: binding; settings: Adenosine (A)
mGluR = assay: Affinity to brain targets (panel); type: binding; settings: mGluR (mGluRs): metabotropic glutamate receptors
NT = assay: Affinity to brain targets (panel); type: binding; settings: NT: neurotrophin
H3, H4 = assay: Affinity to brain targets (panel); type: binding; settings: H3, H4: histamine
BZP = assay: Affinity to brain targets (panel); type: binding; settings: BZP: benzodiazepine
NK = assay: Affinity to brain targets (panel); type: binding; settings: NK: neurokinin
M = assay: Affinity to brain targets (panel); type: binding; settings: M: muscarinic
Sigma1 = Sigma1 (Homo sapiens, UniProt Q99720); assay: Affinity to brain targets (panel); type: binding
5-HT1A-1E = assay: Affinity to brain targets (panel); type: binding
DOR = DOR (Homo sapiens, UniProt P41143); assay: Affinity to brain targets (panel); type: binding; settings: DOR: delta opioid receptors
Smoothened = Smoothened (Homo sapiens, UniProt Q99835); assay: Affinity to brain targets (panel); type: binding
Oxytocin = target: T1, Oxytocin (Homo sapiens, UniProt P30559); assay: Affinity to brain targets (panel); type: binding
T1 sequence (P30559 1-389): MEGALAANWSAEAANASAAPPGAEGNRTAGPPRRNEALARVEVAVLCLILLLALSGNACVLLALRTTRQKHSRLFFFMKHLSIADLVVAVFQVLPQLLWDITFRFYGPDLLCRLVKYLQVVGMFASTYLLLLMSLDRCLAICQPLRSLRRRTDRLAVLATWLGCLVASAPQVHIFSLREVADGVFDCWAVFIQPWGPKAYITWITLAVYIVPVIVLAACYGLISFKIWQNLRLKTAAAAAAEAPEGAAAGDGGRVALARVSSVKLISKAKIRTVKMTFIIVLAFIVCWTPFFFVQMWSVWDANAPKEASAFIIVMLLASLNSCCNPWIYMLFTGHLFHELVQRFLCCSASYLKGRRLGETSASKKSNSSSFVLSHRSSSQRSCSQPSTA

5-HT2A-2C = assay: Affinity to brain targets (panel); type: binding
MDR1 = MDR1 (Homo sapiens, UniProt P08183); assay: Affinity to brain targets (panel); type: binding; settings: MDR1: multidrug resistance
DAT = DAT (Homo sapiens, UniProt Q01959); assay: Affinity to brain targets (panel); type: binding; settings: DAT: dopamine transporters
NMDA = assay: Affinity to brain targets (panel); type: binding
β1-3 = assay: Affinity to brain targets (panel); type: binding
KA = assay: Affinity to brain targets (panel); type: binding; settings: KA (KAR): Kainate
NOP = NOP (Homo sapiens, UniProt P41146); assay: Affinity to brain targets (panel); type: binding
CB1, CB2 = assay: Affinity to brain targets (panel); type: binding
EP = assay: Affinity to brain targets (panel); type: binding; settings: EP: prostanoid receptors
H2 = H2 (Homo sapiens, UniProt P25021); assay: Affinity to brain targets (panel); type: binding; settings: H2: histamine
Na+ Channel = assay: Affinity to brain targets (panel); type: binding
α1A-1C = assay: Affinity to brain targets (panel); type: binding
5-HT3-7 = assay: Affinity to brain targets (panel); type: binding
PKC = assay: Affinity to brain targets (panel); type: binding; settings: PKC: Protein kinase C
HERG = HERG (Homo sapiens, UniProt Q12809); assay: Affinity to brain targets (panel); type: binding; settings: HERG: human ether-a-go-go
MOR = MOR (Homo sapiens, UniProt P35372); assay: Affinity to brain targets (panel); type: binding; settings: MOR: mu opioid receptor
D1-D5 = assay: Affinity to brain targets (panel); type: binding
α2A-2C = assay: Affinity to brain targets (panel); type: binding
H1 = H1 (Homo sapiens, UniProt P35367); assay: Affinity to brain targets (panel); type: binding; settings: H1: histamine
VMAT = assay: Affinity to brain targets (panel); type: binding; settings: VMAT (VMAT 1,2): vesicular monoamine transporter
GABA = assay: Affinity to brain targets (panel); type: binding
I = assay: Affinity to brain targets (panel); type: binding
AMPA = assay: Affinity to brain targets (panel); type: binding
NET = NET (Homo sapiens, UniProt P23975); assay: Affinity to brain targets (panel); type: binding; settings: NET: norepinephrine transporter
SERT = SERT (Homo sapiens, UniProt P31645); assay: Affinity to brain targets (panel); type: binding; settings: SERT: serotonin transporter
KOR = KOR (Homo sapiens, UniProt P41145); assay: Affinity to brain targets (panel); type: binding; settings: KOR: kappa opioid receptors
tumor xenografts = settings: references 12-14; cited from earlier work
panel of kinases = settings: cited from earlier work
[1] = references 12-14; cited from earlier work
brain MTs = assay: MicroPET in mice brain; type: in vivo; settings: for BBB penetration and brain distribution: microPET, mice
Description: Blocking with unlabeled MPC-6827 and HD-800 (5 mg/kg/i.v) 20 minute prior to radioligand administration indicates specific binding of radiotracer to brain MTs. […] Time activity curves (TACs) further confirm the washout of [^11C]HD-800 in mice brain and excellent specific binding with unlabeled HD-800 and MPC-6827 as blocking agents (FIG. 9).^23-24
The distribution pattern of [^18F]FEMPC-6827 in the mice brain is similar to that of [^11C]MPC-6827 and [^11C]HD-800.

Sequence of H2 (P25021 whole entry): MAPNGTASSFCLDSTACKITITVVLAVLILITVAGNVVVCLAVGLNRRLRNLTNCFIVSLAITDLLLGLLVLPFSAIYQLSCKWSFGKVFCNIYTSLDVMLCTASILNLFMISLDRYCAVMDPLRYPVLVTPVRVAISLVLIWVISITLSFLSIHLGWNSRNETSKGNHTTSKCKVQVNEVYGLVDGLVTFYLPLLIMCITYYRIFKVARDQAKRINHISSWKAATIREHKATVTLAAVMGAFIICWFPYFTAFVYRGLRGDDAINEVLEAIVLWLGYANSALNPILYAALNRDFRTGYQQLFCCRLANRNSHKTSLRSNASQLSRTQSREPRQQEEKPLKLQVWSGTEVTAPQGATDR
Sequence of SERT (P31645 whole entry, species assumed): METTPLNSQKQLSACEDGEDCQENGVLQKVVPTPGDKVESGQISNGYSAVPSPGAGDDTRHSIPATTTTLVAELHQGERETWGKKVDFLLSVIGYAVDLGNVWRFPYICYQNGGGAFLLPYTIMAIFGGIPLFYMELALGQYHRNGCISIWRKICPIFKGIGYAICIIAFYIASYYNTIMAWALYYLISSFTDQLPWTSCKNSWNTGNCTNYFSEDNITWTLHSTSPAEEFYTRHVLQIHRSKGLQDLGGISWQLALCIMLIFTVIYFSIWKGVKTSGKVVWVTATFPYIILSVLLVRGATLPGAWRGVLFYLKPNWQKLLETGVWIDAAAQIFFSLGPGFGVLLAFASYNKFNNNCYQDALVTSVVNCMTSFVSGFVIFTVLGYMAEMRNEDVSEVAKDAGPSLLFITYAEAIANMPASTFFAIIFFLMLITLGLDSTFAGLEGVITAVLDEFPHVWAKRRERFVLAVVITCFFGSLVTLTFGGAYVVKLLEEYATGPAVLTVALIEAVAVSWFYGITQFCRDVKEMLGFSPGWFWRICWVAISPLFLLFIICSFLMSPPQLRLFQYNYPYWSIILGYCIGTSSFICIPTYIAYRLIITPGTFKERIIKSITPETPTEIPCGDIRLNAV
Sequence of PBR (P30536 whole entry, species assumed): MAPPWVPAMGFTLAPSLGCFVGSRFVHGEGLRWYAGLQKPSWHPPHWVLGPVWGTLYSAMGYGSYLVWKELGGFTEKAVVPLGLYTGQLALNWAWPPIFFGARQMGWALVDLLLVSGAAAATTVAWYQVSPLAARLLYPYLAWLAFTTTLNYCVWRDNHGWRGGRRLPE
Sequence of DOR (P41143 whole entry): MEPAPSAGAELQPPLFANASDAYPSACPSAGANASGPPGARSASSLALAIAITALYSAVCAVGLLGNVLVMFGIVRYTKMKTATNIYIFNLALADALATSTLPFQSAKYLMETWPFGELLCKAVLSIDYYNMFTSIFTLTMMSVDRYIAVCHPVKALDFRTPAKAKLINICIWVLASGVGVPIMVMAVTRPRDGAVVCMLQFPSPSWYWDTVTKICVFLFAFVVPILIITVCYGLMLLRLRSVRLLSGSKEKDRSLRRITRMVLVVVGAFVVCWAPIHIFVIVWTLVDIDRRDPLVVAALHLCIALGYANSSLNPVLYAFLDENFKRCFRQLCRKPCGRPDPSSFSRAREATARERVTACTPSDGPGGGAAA
Sequence of MOR (P35372 whole entry): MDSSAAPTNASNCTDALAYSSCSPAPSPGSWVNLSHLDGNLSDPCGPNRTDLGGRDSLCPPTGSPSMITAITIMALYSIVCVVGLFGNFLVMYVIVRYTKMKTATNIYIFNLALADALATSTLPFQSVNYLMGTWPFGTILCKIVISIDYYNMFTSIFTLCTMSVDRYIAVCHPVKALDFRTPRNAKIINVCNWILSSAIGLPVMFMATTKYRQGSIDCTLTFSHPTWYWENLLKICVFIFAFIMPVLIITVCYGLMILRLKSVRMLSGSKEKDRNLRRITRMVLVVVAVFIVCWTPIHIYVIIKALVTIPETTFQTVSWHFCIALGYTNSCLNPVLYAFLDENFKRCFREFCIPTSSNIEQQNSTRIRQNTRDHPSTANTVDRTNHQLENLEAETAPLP
Sequence of Smoothened (Q99835 28-787): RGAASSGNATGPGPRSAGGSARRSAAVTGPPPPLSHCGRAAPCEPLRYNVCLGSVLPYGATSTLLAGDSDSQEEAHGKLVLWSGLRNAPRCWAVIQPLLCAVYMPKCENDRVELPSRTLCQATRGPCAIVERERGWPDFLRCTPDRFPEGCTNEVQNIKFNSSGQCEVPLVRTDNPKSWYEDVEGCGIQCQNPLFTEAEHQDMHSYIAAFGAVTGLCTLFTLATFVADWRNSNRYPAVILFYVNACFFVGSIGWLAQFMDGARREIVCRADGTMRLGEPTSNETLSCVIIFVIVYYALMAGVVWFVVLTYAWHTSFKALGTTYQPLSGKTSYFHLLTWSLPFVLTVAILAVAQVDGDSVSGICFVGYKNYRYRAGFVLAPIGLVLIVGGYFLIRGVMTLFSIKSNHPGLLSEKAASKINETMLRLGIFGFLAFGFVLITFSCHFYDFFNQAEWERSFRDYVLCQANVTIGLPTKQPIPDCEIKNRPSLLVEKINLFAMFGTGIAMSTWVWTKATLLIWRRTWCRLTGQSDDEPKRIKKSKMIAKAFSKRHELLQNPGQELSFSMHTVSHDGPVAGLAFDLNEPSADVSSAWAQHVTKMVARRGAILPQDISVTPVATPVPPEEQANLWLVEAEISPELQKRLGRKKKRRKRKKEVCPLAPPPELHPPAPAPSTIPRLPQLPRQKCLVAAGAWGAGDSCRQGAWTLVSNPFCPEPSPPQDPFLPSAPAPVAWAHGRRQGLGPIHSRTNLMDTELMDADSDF
Sequence of MDR1 (P08183 whole entry, species assumed): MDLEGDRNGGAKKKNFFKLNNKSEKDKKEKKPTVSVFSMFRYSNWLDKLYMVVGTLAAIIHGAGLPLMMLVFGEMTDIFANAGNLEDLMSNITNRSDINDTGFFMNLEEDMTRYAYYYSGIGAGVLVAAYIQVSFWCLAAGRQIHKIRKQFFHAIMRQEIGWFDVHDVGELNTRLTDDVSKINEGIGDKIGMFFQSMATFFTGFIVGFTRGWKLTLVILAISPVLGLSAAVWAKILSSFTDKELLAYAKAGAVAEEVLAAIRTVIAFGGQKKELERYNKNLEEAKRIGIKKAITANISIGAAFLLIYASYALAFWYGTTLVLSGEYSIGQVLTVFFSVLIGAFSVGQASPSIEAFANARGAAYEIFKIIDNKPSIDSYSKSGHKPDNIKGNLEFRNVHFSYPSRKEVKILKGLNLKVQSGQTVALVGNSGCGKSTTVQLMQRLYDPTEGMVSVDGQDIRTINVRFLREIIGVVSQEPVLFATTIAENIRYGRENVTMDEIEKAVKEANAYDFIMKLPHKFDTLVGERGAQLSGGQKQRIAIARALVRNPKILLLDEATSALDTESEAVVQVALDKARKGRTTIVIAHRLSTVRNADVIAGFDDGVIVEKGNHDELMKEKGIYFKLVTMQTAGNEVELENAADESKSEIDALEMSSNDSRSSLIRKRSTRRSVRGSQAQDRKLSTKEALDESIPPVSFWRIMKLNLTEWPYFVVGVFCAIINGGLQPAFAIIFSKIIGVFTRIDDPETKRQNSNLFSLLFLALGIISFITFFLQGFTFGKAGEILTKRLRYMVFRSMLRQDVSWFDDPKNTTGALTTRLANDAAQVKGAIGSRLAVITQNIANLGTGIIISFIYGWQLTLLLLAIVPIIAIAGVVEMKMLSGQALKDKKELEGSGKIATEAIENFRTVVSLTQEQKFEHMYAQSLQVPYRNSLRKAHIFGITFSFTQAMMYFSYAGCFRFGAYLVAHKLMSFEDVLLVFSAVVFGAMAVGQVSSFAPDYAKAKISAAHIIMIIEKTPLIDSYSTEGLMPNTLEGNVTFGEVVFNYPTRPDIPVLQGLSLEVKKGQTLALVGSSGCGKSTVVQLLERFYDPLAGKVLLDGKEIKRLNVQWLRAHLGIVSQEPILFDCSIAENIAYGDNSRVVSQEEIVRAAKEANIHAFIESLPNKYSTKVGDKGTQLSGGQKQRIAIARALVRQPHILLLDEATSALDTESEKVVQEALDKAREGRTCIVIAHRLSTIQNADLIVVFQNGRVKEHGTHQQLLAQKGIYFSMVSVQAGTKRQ
Sequence of DAT (Q01959 whole entry, species assumed): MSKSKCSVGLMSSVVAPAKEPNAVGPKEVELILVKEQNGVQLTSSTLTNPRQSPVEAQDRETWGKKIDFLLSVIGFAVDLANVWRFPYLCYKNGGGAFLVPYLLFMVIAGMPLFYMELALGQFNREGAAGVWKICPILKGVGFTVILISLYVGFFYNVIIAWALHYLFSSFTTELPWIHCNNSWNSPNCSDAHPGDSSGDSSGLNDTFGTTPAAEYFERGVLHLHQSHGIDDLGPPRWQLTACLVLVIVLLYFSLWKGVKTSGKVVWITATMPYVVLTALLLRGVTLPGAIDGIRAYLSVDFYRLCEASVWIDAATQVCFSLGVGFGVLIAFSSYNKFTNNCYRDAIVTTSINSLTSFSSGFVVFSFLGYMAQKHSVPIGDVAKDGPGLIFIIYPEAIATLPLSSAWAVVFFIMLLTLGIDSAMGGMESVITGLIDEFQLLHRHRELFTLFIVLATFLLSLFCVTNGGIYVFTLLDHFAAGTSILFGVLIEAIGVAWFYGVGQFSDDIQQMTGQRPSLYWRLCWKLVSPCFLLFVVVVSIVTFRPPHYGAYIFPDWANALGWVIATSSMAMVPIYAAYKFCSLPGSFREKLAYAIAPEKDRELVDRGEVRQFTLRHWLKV
Sequence of NOP (P41146 whole entry): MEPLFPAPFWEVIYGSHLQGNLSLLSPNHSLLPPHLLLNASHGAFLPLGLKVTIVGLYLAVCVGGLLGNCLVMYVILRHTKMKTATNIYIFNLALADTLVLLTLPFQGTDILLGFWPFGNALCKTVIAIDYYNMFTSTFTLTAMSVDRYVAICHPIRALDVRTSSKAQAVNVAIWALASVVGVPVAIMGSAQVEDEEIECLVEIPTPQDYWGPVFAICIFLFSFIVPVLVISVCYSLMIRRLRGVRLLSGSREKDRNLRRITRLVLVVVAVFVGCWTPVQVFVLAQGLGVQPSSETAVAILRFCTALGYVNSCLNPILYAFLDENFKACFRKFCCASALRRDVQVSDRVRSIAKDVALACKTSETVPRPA

Question: With `Cc1nc(N(C)c2ccc(OCCF)cc2)c2c(C)coc2n1` [FE-HD-800] as the compound, how does the pKi (PBR) read?
Answer: Its pKi is < 5.00.

Question: What about the pKi (Ca++ channel) of the same compound?
Answer: Its pKi is < 5.00.

Question: What about the pKi (Sigma2) of the same compound?
Answer: The pKi was 5.61.

Question: What about the pKi (Adenosine) of the same compound?
Answer: Its pKi is < 5.00.

Question: And the pKi (mGluR)?
Answer: Its pKi is < 5.00.

Question: And the pKi (NT)?
Answer: Its pKi is < 5.00.

Question: And the pKi (H3, H4)?
Answer: The pKi was < 5.00.

Question: And the pKi (BZP)?
Answer: Its pKi is < 5.00.

Question: And the pKi (NK)?
Answer: The pKi was < 5.00.

Question: What about the pKi (M) of the same compound?
Answer: The pKi was < 5.00.

Question: What about the pKi (Sigma1) of the same compound?
Answer: The pKi was 6.08.

Question: What about the pKi (5-HT1A-1E) of the same compound?
Answer: Its pKi is < 5.00.

Question: And the pKi (DOR)?
Answer: Its pKi is < 5.00.

Question: And the pKi (Smoothened)?
Answer: The pKi was < 5.00.

Question: And the pKi (Oxytocin)?
Answer: Its pKi is < 5.00.

Question: What about the pKi (5-HT2A-2C) of the same compound?
Answer: Its pKi is < 5.00.

Question: And the pKi (MDR1)?
Answer: The pKi was < 5.00.

Question: And the pKi (DAT)?
Answer: Its pKi is < 5.00.

Question: And the pKi (NMDA)?
Answer: The pKi was < 5.00.

Question: And the pKi (β1-3)?
Answer: Its pKi is < 5.00.

Question: And the pKi (KA)?
Answer: The pKi was < 5.00.

Question: And the pKi (NOP)?
Answer: The pKi was < 5.00.

Question: And the pKi (CB1, CB2)?
Answer: Its pKi is < 5.00.

Question: What about the pKi (EP) of the same compound?
Answer: The pKi was < 5.00.

Question: What about the pKi (H2) of the same compound?
Answer: Its pKi is < 5.00.

Question: What about the pKi (Na+ Channel) of the same compound?
Answer: The pKi was < 5.00.

Question: And the pKi (α1A-1C)?
Answer: Its pKi is < 5.00.

Question: What about the pKi (5-HT3-7) of the same compound?
Answer: Its pKi is < 5.00.

Question: And the pKi (PKC)?
Answer: Its pKi is < 5.00.

Question: And the pKi (HERG)?
Answer: Its pKi is < 5.00.

Question: What about the pKi (MOR) of the same compound?
Answer: Its pKi is < 5.00.

Question: What about the pKi (D1-D5) of the same compound?
Answer: The pKi was < 5.00.

Question: And the pKi (α2A-2C)?
Answer: The pKi was < 5.00.

Question: And the pKi (H1)?
Answer: The pKi was 5.47.

Question: And the pKi (VMAT)?
Answer: The pKi was < 5.00.

Question: What about the pKi (GABA) of the same compound?
Answer: The pKi was < 5.00.

Question: What about the pKi (I) of the same compound?
Answer: Its pKi is < 5.00.

Question: And the pKi (AMPA)?
Answer: The pKi was < 5.00.

Question: What about the pKi (NET) of the same compound?
Answer: Its pKi is < 5.00.

Question: And the pKi (SERT)?
Answer: The pKi was < 5.00.

Question: What about the pKi (KOR) of the same compound?
Answer: The pKi was < 5.00.

Question: Which results are given for `Cc1nc(N(C)c2ccc(OCCF)cc2)c2ccccc2n1` [FEMPC-6827]?
Answer: pKi (PBR): 5.80; pKi (Ca++ channel): < 5.00; pKi (Sigma2): 5.61; pKi (Adenosine): < 5.00; pKi (mGluR): < 5.00; pKi (NT): < 5.00; pKi (H3, H4): < 5.00; pKi (BZP): < 5.00; pKi (NK): < 5.00; pKi (M): < 5.00; pKi (Sigma1): 7.29; pKi (5-HT1A-1E): < 5.00; pKi (DOR): < 5.00; pKi (Smoothened): < 5.00; pKi (Oxytocin): < 5.00; pKi (5-HT2A-2C): < 5.00; pKi (MDR1): < 5.00; pKi (DAT): < 5.00; pKi (NMDA): < 5.00; pKi (β1-3): < 5.00; pKi (KA): < 5.00; pKi (NOP): < 5.00; pKi (CB1, CB2): < 5.00; pKi (EP): < 5.00; pKi (H2): 5.64; pKi (Na+ Channel): < 5.00; pKi (α1A-1C): < 5.00; pKi (5-HT3-7): < 5.00; pKi (PKC): < 5.00; pKi (HERG): < 5.00; pKi (MOR): < 5.00; pKi (D1-D5): < 5.00; pKi (α2A-2C): < 5.00; pKi (H1): 6.52; pKi (VMAT): < 5.00; pKi (GABA): < 5.00; pKi (I): < 5.00; pKi (AMPA): < 5.00; pKi (NET): < 5.00; pKi (SERT): < 5.00; pKi (KOR): < 5.00

Question: What does the source list for `COc1ccc2c(c1)NC(=O)CN2c1nc(C)nc2ccccc12` [WX-132-18B, 7-Methoxy-4-(2-methylquinazolin-4-yl)-3,4-dihydroquinoxalin-2(1H)-one]?
Answer: tumor growth inhibition (TGI) compared with paclitaxel (tumor xenografts): higher tumor growth inhibition (TGI) than paclitaxel; binding to a panel / variety of kinases (panel of kinases): selective; BBB penetration [1]: BBB penetrant

Question: What does the source list for `Cc1coc2ncnc(N(C)c3ccc(O[11CH3])cc3)c12` [[^11C]HD-800]?
Answer: BBB penetration and brain distribution (brain MTs): penetrated the BBB followed by a homogeneous distribution in the mouse brain; blocking of brain activity (brain MTs; unlabeled MPC-6827 and HD-800 (5 mg/kg/i.v) 20 minute prior to radioligand): significant decreasing activity

Question: Which “BBB penetration and brain distribution” value (brain MTs) does the source give for `Cc1nc(N(C)c2ccc(OCC[18F])cc2)c2ccccc2n1` [[^18F]FEMPC-6827] here?
Answer: Its value is “blood brain barrier penetration and accumulation in the brain”.

Source: patent US12054463B2, “Radiolabeled microtubule imaging compounds and uses thereof” (The Trustees of Columbia University in the City of New York, priority 2017, dated 2024)
